Key:
X4 strain (UG024) = assay: HIV RT activity in MDM infected with X4 strain; format: cell-based
Description: (§1) Based upon their differential use of the major HIV co-receptors, HIV isolates have been referred to as R5, X4 or R5X4 strains, respectively (29). The M-tropic (macrophage-tropic) R5 prototype strains (Bal and ADA), dual tropic strain (89.6) and X4 primary isolate (UG024), were obtained from the NIH AIDS Reagent Program. Primary M-tropic isolates (BL-6 and CSF-6) were isolated from the blood and cerebrospinal fluid cells, respectively, of a subject with AIDS.
(§2) The cells were also incubated with SP and/or anti-SP antibody. In this case, SP was incubated with (1:1000 dilution in 10% FCS DMEM) or without anti-SP antibody at room temperature for 10 min and then the mixture was added to the cell cultures for 2 h. When the cells were treated with the combination of CP-96,345 and SP, or CP-96,345, SP and anti-SP antibody, CP-96,345 was incubated with the cell culture for 10 min and then SP was added to the MDM or CP-96,345, SP and anti-SP (1:1000 in 10% FCS DMEM) were incubated for 10 min at room temperature and the mixture was incubated with the MDM for 2 h before infection with HIV. Untreated MDM served as controls. The cells were treated prior to, during, and throughout the infection. […]

ADA Env-pseudotyped HIV = assay: Pseudotype reporter virus entry assay, ADA Env; format: cell-based
Description: (§3) Pseudotype reporter virus entry assay: Recombinant luciferase-encoding HIV virions pseudotyped with Env from the M-tropic ADA (CCR5-dependent) and amphitropic murine leukemia virus (MLV) (CCR5-independent) were used to study HIV infection of MDM incubated with or without CP-96,345 or R-113281. The Env-deleted luciferase reporter plasmid PNL-Luc-E-R+ (kindly provided by N. Landau) was cotransfected into 293T cells along with plasmids encoding the ADA or MLV Env genes as previously described (31). Supernatants were collected 48 h later, assayed for p24^Gag antigen content, and frozen at −80° C. MDM (2.5×10^5 cells/well, in 48-well plates) were incubated overnight with or without CP-96,345 or R-113281 and then infected using 20 ng of p24^Gag antigen equivalent of each pseudotype HIV per well, in the presence of polybrene (7.5 μg/ml). At 72 h postinfection, the cells were lysed in 150 μl of 0.5% Triton-X-100 in PBS. Lysate (50 μl) was mixed with an equal volume of luciferase substrate (Promega, […].) and luciferase activity was determined in a microtiter plate luminometer (Dynex Technologies, Chantilly, Va.). The results were expressed as relative light units (RLU) in CP-96,345-treated or R-113281-treated and infected MDM as a percentage of that in untreated and infected MDM.

MLV Env-pseudotyped HIV = assay: Pseudotype reporter virus entry assay, MLV Env; format: cell-based, murine leukemia virus
Description: as §3

CCR5 mRNA = CCR5 mRNA expression in MDM (RT-PCR); format: cell-based, human; conditions: for relative CCR5 mRNA level (real-time RT-PCR): CP-96,345 10^−7 to 10^−6 M or R-113281 10^−8 to 10^−6 M, 4 hours (FIG. 15A)
Description: Total RNA was isolated from human peripheral blood MDM (10^6 cells) using Tri-Reagent (Molecular Research Center, Cincinnati, Ohio) as we previously reported (16).
Reverse transcription: Total RNA (1 μg) was reverse transcribed using Reverse Transcription System (Promega, Madison, Wis.) with the specific primers (antisense) for HIV gag (5′-[…]-[…]-3′; SEQ ID NO: 1) (27) or CCR5 (5′-[…]-3′; SEQ ID NO: 2) (32) for 1 h at 42° C. RT reactions was terminated by incubating the reaction mixture at 99° C. for 5 min and then kept at 4° C. The resulting cDNA was used as a template for PCR amplification or real time PCR quantification.
Polymerase chain reaction (PCR) analysis: PCR amplification of CCR5 and HIV gag cDNA was performed with one tenth of the cDNA for 35 cycles (CCR5) (32) or 40 cycles (gag) (27) using AmpliTaq Gold (Perkin Elmer-Cetus, Foster City, Calif.) in a GeneAmp PCR System 2400 (Perkin Elmer-Cetus). β-Actin was used as a control to monitor the amount and integrity of RNA in each sample (Clontech, Palo Alto, Calif.). Real time PCR was performed with one tenth of cDNA using ABI Prism 7700 Sequence Detection System (Perkin Elmer). The reaction mixture contained 0.25 mM of dNTPs, AmpliTaq Gold (1.5 U), 5 mM of MgCl2, 50 pmole of each of the two primers (SK38: 5′-[…]-3′ (SEQ ID NO: 3); SK39: 5+-[…]-3′; SEQ ID NO: 4), 20 pmole of the molecular beacon probe (SK19: 5′-[…]-3′; SEQ ID NO: 5) labeled with FAM (a fluorophore) at its 5′ end and DABCYL (a quencher) at the 3′ end. The cycle conditions were 95° C. 10 min followed by 40 cycles of 95° C. 15 sec and 60° C. 1 min. The known amounts of HIV DNA isolated from ACH-2 cells were used as standard controls. All standards and samples were run in duplicates. HIV gag, CCR5, β-Actin primer pairs and the probe (SK19) were synthesized by Integrated DNA Technologies, Inc. (Coralville, Iowa).

R5X4 strain (89.6) = assay: HIV RT activity in MDM infected with R5X4 strain; format: cell-based
Description: as §1, §2

[1] = system: R5 strains (Bal, ADA, CSF-6 and BL-6); assay: HIV RT activity in MDM infected with R5 strains; format: cell-based
Description: as §1, §2

HIV Bal strain = assay: HIV RT activity in HIV Bal strain-infected MDM; format: cell-based, HIV-1; conditions: for RT activity during HIV Bal infection of MDM: 10^−7−10^−6M (FIG. 18)
Description: The cells were also incubated with SP and/or anti-SP antibody. In this case, SP was incubated with (1:1000 dilution in 10% FCS DMEM) or without anti-SP antibody at room temperature for 10 min and then the mixture was added to the cell cultures for 2 h. When the cells were treated with the combination of CP-96,345 and SP, or CP-96,345, SP and anti-SP antibody, CP-96,345 was incubated with the cell culture for 10 min and then SP was added to the MDM or CP-96,345, SP and anti-SP (1:1000 in 10% FCS DMEM) were incubated for 10 min at room temperature and the mixture was incubated with the MDM for 2 h before infection with HIV. Untreated MDM served as controls. The cells were treated prior to, during, and throughout the infection.
HIV Infection: After 2 h incubation with or without the reagents described above, the cells were infected with equal amounts of cell-free HIV based on p24 antigen content (20 ng/10^6 cells) overnight, and then washed to remove unbound virus. Fresh media containing SP and/or CP-96,345 or anti-SP antibody were added to the MDM as described above. The culture media and the reagents were replaced twice weekly. The culture supernatants were harvested for HIV reverse transcriptase (RT) activity determinations. After HIV infection, the MDM were incubated for 8 to 12 days. At the termination of the experiments, cellular RNA was extracted for assessment of HIV gag gene expression using RT-PCR or real time RT-PCR assays.
The HIV RT activity assay was carried out based on the technique of Willey et al. (30) with modification (22).

[2] = CP-96,345 10^−7M, 8 days after infection (FIG. 6)
[3] = CP-96,345 10^−8 and 10^−7M overnight (FIG. 10)
[4] = R-113281 10^−6 M, 8 days after infection (FIG. 14)
[5] = R-113281 10^−7 and 10^−6 overnight (FIG. 13)

SMILES | replication of X4 strain UG024 (RT activity) (X4 strain (UG024); [2]) | M-tropic ADA Env-pseudotyped HIV infection of MDM (luciferase activity) (ADA Env-pseudotyped HIV; [3]) | MLV Env-pseudotyped HIV infection of MDM (luciferase activity) (MLV Env-pseudotyped HIV; [3]) | CCR5 mRNA in MDM (RT-PCR) (CCR5 mRNA; 10^−8 to 10^−6M, 3 h (FIG. 9)) | relative CCR5 mRNA level (real-time RT-PCR) (CCR5 mRNA) | replication of R5X4 strain 89.6 (RT activity) (R5X4 strain (89.6); [2]) | replication of R5 strains (RT activity) [1, 2] | viral replication by HIV RT activity vs HIV infection control (HIV Bal strain; 10^−7M, 8 days after infection (FIG. 4)) | RT activity during HIV Bal infection of MDM (HIV Bal strain) | HIV replication relative to HIV infection control (HIV Bal strain; CP-96,345 10^−6M and/or anti-SP antibody 1:1000, 12 days (FIG. 5)) | inhibition at 1 µM (HIV Bal strain; Human immunodeficiency virus 1, BAL, 192 h, 10^−6M, day 8 after HIV infection (FIG. 1B)) | inhibition at 0.1 µM (HIV Bal strain; Human immunodeficiency virus 1, BAL, 192 h, 10^−7M, day 8 after HIV infection (FIG. 1B)) | inhibition at 0.01 µM (HIV Bal strain; Human immunodeficiency virus 1, BAL, 192 h, 10^−8M, day 8 after HIV infection (FIG. 1B)) | effect on SP-enhanced HIV replication in MDM (RT activity and gag mRNA) (HIV Bal strain; SP 10^−6M, CP-96,345 10^−6M, anti-SP antibody 1:1000, 12 days (FIG. 5)) | replication of X4 strain (RT activity) (X4 strain (UG024); [4]) | M-tropic ADA Env-pseudotyped HIV infection of MDM (luciferase activity) (ADA Env-pseudotyped HIV; [5]) | MLV-Env pseudotyped HIV infection of MDM (luciferase activity) (MLV Env-pseudotyped HIV; [5]) | replication of R5X4 strain (RT activity) (R5X4 strain (89.6); [4]) | replication of R5 strains (RT activity) [1, 4] | HIV RT activity in Bal-infected MDM (HIV Bal strain; day 8 post-infection, indicated concentrations (FIG. 12))
COc1ccccc1CN[C@H]1C2CCN(CC2)[C@H]1C(c1ccccc1)c1ccccc1 [CP-96,345, 2S, 3S)-cis-2-(diphenylmethyl)-N-[(2-methoxyphenyl)-methyl]-1-azabicyclo[[2.2.2]octan-3-amine] | not affected | inhibited | failed to block | down-regulated | significantly down-regulated | inhibited to a lesser extent | inhibited | inhibited | inhibitory effects | down-regulated HIV replication to a level that was even lower than that of the HIV infection control | 54% | 43% | 1% | abrogated |  |  |  |  |  | 
COc1cc(C(=O)N2CCO[C@](CCN3CCC4(CC3)c3ccccc3C[S@+]4[O-])(c3ccc(Cl)c(Cl)c3)C2)cc(OC)c1OC.Cl [R-113281] |  |  |  |  | significantly down-regulated |  |  |  | inhibitory effects |  |  |  |  |  | not affected | inhibited | failed to block | inhibited to a lesser extent | inhibited | significantly reduced

— patent US20020094524A1, “Compositions and methods for inhibiting HIV infection” (priority 2000, published 2002)
